Paper PMC8198056 (Molecules, 2021)
Numbered stars: 1 amine (or outer) side, 2 acyl side, 3 side chain; on linkers, the order of the positions; unused ones are H or OH. Square brackets hold non-standard residues; d marks the D form. Peptide text beside a SMILES is read from it. X1 = O=C1[C@@H](N[*:1])Cc2ccccc2CN1CCC(=O)[*:2]; Dmt = Cc1cc(O)cc(C)c1C[C@H](N)C(=O)O

What was measured:
non-human primates = test system: non-human primates; parameters: method as in PMID 30158150; details: cited from earlier work
human MOR [1] = target: T1, human MOR (Homo sapiens, UniProt P35372); assay: Competitive radioligand binding assay ([3H]DAMGO), CHO-hMOR membranes; details: CHO-hOR membranes, mean ± SEM, read-out: Receptor Binding Ki
T1 construct: expressed in transfected cells; host or cells: CHO (CHO-hMOR; gift of Lawrence Toll, SRI International)

human KOR [2] = target: T2, human KOR (Homo sapiens, UniProt P41145); assay: Competitive radioligand binding assay ([3H]U69,593), CHO-hKOR membranes; details: [3H]U69,593, CHO-hOR membranes, mean ± SEM, read-out: Receptor Binding Ki
T2 construct: expressed in transfected cells; host or cells: CHO (CHO-hKOR; gift of Lawrence Toll, SRI International)

rats [3] = test system: rats; parameters: method as in PMID 27035422, PMID 28135212; details: i.v. at equianalgesic doses to rats; cited from earlier work
mice [4] = assay: Conditioned place preference (CPP); details: 4-day conditioning
human MOR [5] = target: T1, human MOR; assay: [35S]GTPγS binding assay, CHO-hMOR membranes; assay type: biochemical
mice [6] = assay: CFA-induced chronic inflammatory pain, mechanical sensitivity (von Frey test); assay type: in vivo, mouse
mice [7] = assay: CFA-induced chronic inflammatory pain, thermal sensitivity (Hargreaves test); assay type: in vivo, mouse
mice [8] = assay: Open-field test (spontaneous locomotor activity)
human NOP receptor = target: T3, human NOP receptor (Homo sapiens, UniProt P41146); assay: [35S]GTPγS binding assay, CHO-hNOP membranes; assay type: biochemical; details: relative to maximum effect of nociceptin (100%)
T3 construct: expressed in transfected cells; host or cells: CHO (CHO-hNOP; gift of Lawrence Toll, SRI International)

rats [9] = details: acute i.t. administration in rats; cited from earlier work
[10] = parameters: method as in PMID 27035422; details: cited from earlier work
human DOR [11] = target: T4, human DOR (Homo sapiens, UniProt P41143); assay: [35S]GTPγS binding assay, CHO-hDOR membranes; assay type: biochemical
T4 construct: expressed in transfected cells; host or cells: CHO (CHO-hDOR; gift of Lawrence Toll, SRI International)

human DOR [12] = target: T4, human DOR; assay: Competitive radioligand binding assay ([3H]diprenorphine), CHO-hDOR membranes; details: CHO-hOR membranes, mean ± SEM, read-out: Receptor Binding Ki
mice [13] = assay: Formalin test (formalin-induced acute inflammatory pain); details: for %Antinociceptive effect Phase I: Phase I 0-5 min; for %Antinociceptive effect Phase II: Phase II 15-60 min
human KOR [14] = target: T2, human KOR; assay: [35S]GTPγS binding assay, CHO-hKOR membranes; assay type: biochemical
mice [15] = test system: mice; parameters: method as in PMID 17132815, PMID 23652222; details: cited from earlier work
mice [16] = assay: Naloxone-precipitated withdrawal syndrome; details: 15.5 µmol/kg s.c. daily 5 days; naloxone 1 mg/kg s.c.

CC(C)C1CCC(N2CCC3(CC2)C(=O)N(CCNS(N)(=O)=O)Cc2ccccc23)CC1 (stereo not drawn) [AT-121]
Antinociception and side effects (non-human primates): produced antinociception with reduced respiratory depression and physical dependence

CC[C@H](C)[C@H](NC(=O)[C@H](CCCNC(=N)N)NC(=O)[C@H](Cc1ccc(O)cc1)NC(=O)[C@H](Cc1ccc(O)cc1)NC(=O)[C@H](CCCNC(=N)N)NC(=O)CCN1Cc2ccccc2C[C@H](NC(=O)[C@@H](CCCNC(=N)N)NC(=O)[C@@H](N)Cc2c(C)cc(O)cc2C)C1=O)C(=O)N[C@@H](CCCCN)C(N)=O [KGNOP1, H-Dmt-D-Arg-Aba-β-Ala-Arg-Tyr-Tyr-Arg-Ile-Lys-NH2] (H-[Dmt][dR][X1]RYYRIK-NH2)
Ki (human MOR [1]): 0.42 ± 0.08 nM | Ki (human KOR [2]): 13.4 ± 4.3 nM | Respiratory depression in contrast to morphine (rats [3]): significantly less respiratory depression | CPP response vs saline (mice [4]; 1.22 and 2.44 µmol/kg s.c.): no significant preference at any tested dose | EC50 (human MOR [5]): 2.5 ± 0.81 nM | Emax (human MOR [5]; relative to maximum effect of DAMGO (100%)): 92 ± 4% | Time points of significant effect on mechanical stimulation vs saline (mice [6]; 1.22 µmol/kg s.c.): one hour | % reversal of mechanical sensitivity (mice [6]; 1.22 µmol/kg s.c., 30 min): -6.71% | % reversal of mechanical sensitivity (mice [6]; 1.22 µmol/kg s.c., 1 h): 65.4% | % reversal of mechanical sensitivity (mice [6]; 1.22 µmol/kg s.c., 2 h): 19.1% | % reversal of mechanical sensitivity (mice [6]; 1.22 µmol/kg s.c., 3 h): -8.73% | % reversal of mechanical sensitivity (mice [6]; 1.22 µmol/kg s.c., 4 h): 21.1% | % reversal of mechanical sensitivity (mice [6]; 1.22 µmol/kg s.c., 5 h): -0.50% | % reversal of mechanical sensitivity (mice [6]; 1.22 µmol/kg s.c., 6 h): -12.9% | % reversal of mechanical sensitivity (mice [6]; 1.22 µmol/kg s.c., 7 h): -8.30% | % reversal of mechanical sensitivity (mice [6]; 1.22 µmol/kg s.c., 8 h): -2.42% | % reversal of mechanical sensitivity (mice [6]; 1.22 µmol/kg s.c., 24 h): -8.66% | Time span of significant inhibition of thermal hyperalgesia vs saline (mice [7]; 0.49 µmol/kg s.c.): 30 to 240 min | % reversal of thermal sensitivity (mice [7]; 0.49 µmol/kg s.c., 30 min): 23.5% | % reversal of thermal sensitivity (mice [7]; 0.49 µmol/kg s.c., 1 h): 38.1% | % reversal of thermal sensitivity (mice [7]; 0.49 µmol/kg s.c., 2 h): 59.8% | % reversal of thermal sensitivity (mice [7]; 0.49 µmol/kg s.c., 3 h): 40.2% | % reversal of thermal sensitivity (mice [7]; 0.49 µmol/kg s.c., 4 h): 25.4% | % reversal of thermal sensitivity (mice [7]; 0.49 µmol/kg s.c., 5 h): 15.7% | % reversal of thermal sensitivity (mice [7]; 0.49 µmol/kg s.c., 6 h): 9.3% | % reversal of thermal sensitivity (mice [7]; 0.49 µmol/kg s.c., 7 h): -1.46% | % reversal of thermal sensitivity (mice [7]; 0.49 µmol/kg s.c., 8 h): 6.12% | % reversal of thermal sensitivity (mice [7]; 0.49 µmol/kg s.c., 24 h): -3.79% | Time of maximum efficacy, Hargreaves test (mice [7]; 1.22 µmol/kg s.c.): two hours | Time span of significant inhibition of thermal hyperalgesia vs saline (mice [7]; 1.22 µmol/kg s.c.): 30 to 360 min | % reversal of thermal sensitivity (mice [7]; 1.22 µmol/kg s.c., 30 min): 31.9% | % reversal of thermal sensitivity (mice [7]; 1.22 µmol/kg s.c., 1 h): 54.4% | % reversal of thermal sensitivity (mice [7]; 1.22 µmol/kg s.c., 2 h): 98.6% | % reversal of thermal sensitivity (mice [7]; 1.22 µmol/kg s.c., 3 h): 78.6% | % reversal of thermal sensitivity (mice [7]; 1.22 µmol/kg s.c., 4 h): 58.2% | % reversal of thermal sensitivity (mice [7]; 1.22 µmol/kg s.c., 5 h): 26.0% | % reversal of thermal sensitivity (mice [7]; 1.22 µmol/kg s.c., 6 h): 26.7% | % reversal of thermal sensitivity (mice [7]; 1.22 µmol/kg s.c., 7 h): 10.2% | % reversal of thermal sensitivity (mice [7]; 1.22 µmol/kg s.c., 8 h): 9.15% | % reversal of thermal sensitivity (mice [7]; 1.22 µmol/kg s.c., 24 h): 6.72% | Duration of reversal of CFA-induced thermal hyperalgesia (mice [7]; s.c.): up to 6 h | Spontaneous locomotor activity (distance traveled) vs saline (mice [8]; 1.22 µmol/kg s.c. daily for 4 days): no significant alteration in locomotion | Spontaneous locomotor activity (distance traveled) vs saline (mice [8]; 2.44 µmol/kg s.c., only at day 1): significant decrease in locomotion | Emax (human NOP receptor): 99 ± 8% | Effect on evoked locomotor activity in the rotarod test (rats [9]): lack of KGNOP1′s effect on the evoked locomotor activity | Half-life time t1/2 in human plasma [10]: 9.77 h | EC50 (human DOR [11]): 51.6 ± 17.8 nM | Emax (human DOR [11]; relative to maximum effect of DPDPE (100%)): 106 ± 3% | Ki (human DOR [12]): 12.2 ± 3.5 nM | %Antinociceptive effect Phase I (mice [13]; 0.12 µmol/kg s.c.): 33.9 ± 3.8% | %Antinociceptive effect Phase II (mice [13]; 0.12 µmol/kg s.c.): 2.3 ± 11.1% | %Antinociceptive effect Phase I (mice [13]; 0.49 µmol/kg s.c.): 33.7 ± 9.3% | %Antinociceptive effect Phase II (mice [13]; 0.49 µmol/kg s.c.): 51.8 ± 9.7% | Pain response counted between 15 and 60 min (mice [13]; 1.22 µmol/kg s.c.): almost complete inhibition of the pain response | %Antinociceptive effect Phase I (mice [13]; 1.22 µmol/kg s.c.): 55.6 ± 7.3% | %Antinociceptive effect Phase II (mice [13]; 1.22 µmol/kg s.c.): 71.4 ± 6.8% | Antinociceptive effect after pre-treatment with SB-612111 (mice [13]; KGNOP1 1.22 µmol/kg s.c., SB-612111 6.6 µmol/kg s.c., -30 min, Phase I and II): significantly reversed the antinociceptive response | Antinociceptive effect after pre-treatment with naltrexone (mice [13]; KGNOP1 1.22 µmol/kg s.c., naltrexone 2.6 µmol/kg s.c., -15 min, Phase I and II): significant antagonism of the antinociceptive effect | Antinociceptive ED50 (95% CL), Phase I (mice [13]; s.c., acute nociceptive Phase I (0-5 min)): 1.17 µmol/kg | Antinociceptive ED50 (95% CL), Phase II (mice [13]; s.c., inflammatory Phase II (15-60 min)): 0.55 µmol/kg | EC50 (human KOR [14]): 112 ± 32 nM | Emax (human KOR [14]; relative to maximum effect of U69,593 (100%)): 37 ± 3%

O=C1Cc2ccccc2N1C1CCN(C2C3CCCC2CCC3)CC1 (stereo not drawn) [SR16435, 1-(1-(bicyclo [3.3. 1]nonan-9-yl)piperidin-4-yl) indolin-2-one]
CPP in mice (mice [15]): induced CPP in mice to the same extent as morphine

CN1CC[C@]23c4c5ccc(O)c4O[C@H]2[C@@H](O)C=C[C@H]3[C@H]1C5 [morphine, reference compound]
CPP response vs saline (mice [4]; 15.5 µmol/kg s.c.): significant CPP response | Global withdrawal score vs saline (mice [16]): significantly increased withdrawal | Time points of significant effect on mechanical stimulation vs saline (mice [6]; 15.5 µmol/kg s.c.): 30 min and one hour | % reversal of mechanical sensitivity (mice [6]; 15.5 µmol/kg s.c., 30 min): 63.4% | % reversal of mechanical sensitivity (mice [6]; 15.5 µmol/kg s.c., 1 h): 50.6% | % reversal of mechanical sensitivity (mice [6]; 15.5 µmol/kg s.c., 2 h): 18.9% | % reversal of mechanical sensitivity (mice [6]; 15.5 µmol/kg s.c., 3 h): 6.62% | % reversal of mechanical sensitivity (mice [6]; 15.5 µmol/kg s.c., 4 h): 1.57% | % reversal of mechanical sensitivity (mice [6]; 15.5 µmol/kg s.c., 5 h): 11.7% | % reversal of mechanical sensitivity (mice [6]; 15.5 µmol/kg s.c., 6 h): -2.29% | % reversal of mechanical sensitivity (mice [6]; 15.5 µmol/kg s.c., 24 h): 1.68% | Time of peak antihyperalgesic effect (mice [7]; 15.5 µmol/kg s.c.): 30 min | Time points of significant reduction in thermal hyperalgesia vs saline (mice [7]; 15.5 µmol/kg s.c.): 30 min and one hour | % reversal of thermal sensitivity (mice [7]; 15.5 µmol/kg s.c., 30 min): 68.6% | % reversal of thermal sensitivity (mice [7]; 15.5 µmol/kg s.c., 1 h): 36.1% | % reversal of thermal sensitivity (mice [7]; 15.5 µmol/kg s.c., 2 h): 19.6% | % reversal of thermal sensitivity (mice [7]; 15.5 µmol/kg s.c., 3 h): 13.8% | % reversal of thermal sensitivity (mice [7]; 15.5 µmol/kg s.c., 4 h): -1.96% | % reversal of thermal sensitivity (mice [7]; 15.5 µmol/kg s.c., 5 h): 0.43% | % reversal of thermal sensitivity (mice [7]; 15.5 µmol/kg s.c., 6 h): -0.40% | % reversal of thermal sensitivity (mice [7]; 15.5 µmol/kg s.c., 24 h): 0.00% | Spontaneous locomotor activity (distance traveled) vs saline (mice [8]; 15.5 µmol/kg s.c. daily, day 1 to day 4): significant increase in the distance traveled | %Antinociceptive effect Phase I (mice [13]; 3.11 µmol/kg s.c.): 19.4 ± 6.7% | %Antinociceptive effect Phase II (mice [13]; 3.11 µmol/kg s.c.): 24.8 ± 11.6% | %Antinociceptive effect Phase I (mice [13]; 7.77 µmol/kg s.c.): 32.6 ± 5.7% | %Antinociceptive effect Phase II (mice [13]; 7.77 µmol/kg s.c.): 57.5 ± 8.3% | Pain response counted between 15 and 60 min (mice [13]; 15.5 µmol/kg s.c.): almost complete inhibition of the pain response | %Antinociceptive effect Phase I (mice [13]; 15.5 µmol/kg s.c.): 38.4 ± 10.9% | %Antinociceptive effect Phase II (mice [13]; 15.5 µmol/kg s.c.): 79.1 ± 7.5%
